Source: patent US20230201292A1, “HERBAL FORMULATION FOR THE PREVENTION AND MANAGEMENT OF TYPE-2 DIABETES MELLITUS AND ASSOCIATED MICROVASCULAR COMPLICATIONS” (priority 2021, published 2023)

System: Streptozotocin (STZ) treated diabetic rats
Assay: Streptozotocin (STZ) treated diabetic rats: blood glucose, hs CRP, IL-6, adiponectin
Assay type: in vivo
Details: for Blood glucose level: STZ (65 mg/kg) diabetic rats; for Adiponectin / IL-6 / hs CRP: STZ diabetic rats

**Q.** For `C[C@H]1O[C@H](O[C@H]2[C@H](O)[C@@H](O)[C@@H](O[C@H]3[C@H](O)[C@@H](O)C(O)O[C@@H]3CO)O[C@@H]2CO)[C@H](O)[C@@H](O)[C@@H]1N[C@H]1C=C(CO)[C@@H](O)[C@H](O)[C@H]1O` (stereo partly drawn) [Acarbose], which Blood glucose level (7th Days) is on record?
**A.** 228.33 ± 19.44 mg/day

**Q.** And the Blood glucose level (14th Days)?
**A.** 192.74 ± 15.18 mg/day

**Q.** What about the Blood glucose level (28th Days) of the same compound?
**A.** 157.51 ± 10.24 mg/day

**Q.** What about the Adiponectin (7th Days) of the same compound?
**A.** 8.87 ± 2.10 µg/mL

**Q.** And the IL-6 (7th Days)?
**A.** 2.87 ± 0.25 pg/mL

**Q.** What about the “hs CRP” value (7th Days) of the same compound?
**A.** 6.78 ± 1.52 mg/L

**Q.** And the Adiponectin (14th Days)?
**A.** 9.65 ± 1.63 µg/mL

**Q.** And the IL-6 (14th Days)?
**A.** 2.49 ± 0.32 pg/mL

**Q.** And the “hs CRP” value (14th Days)?
**A.** 5.43 ± 0.75 mg/L

**Q.** And the Adiponectin (28th Days)?
**A.** 10.23 ± 2.14 µg/mL

**Q.** What about the IL-6 (28th Days) of the same compound?
**A.** 2.23 ± 0.26 pg/mL

**Q.** What about the “hs CRP” value (28th Days) of the same compound?
**A.** 4.97 ± 0.87 mg/L
